{"source": "patent US10251874B2", "about": "“Crystalline forms of a JAK inhibitor compound” (THERAVANCE BIOPHARMA R&D IP, LLC, priority 2017, dated 2019)", "key": {"[1]": {"system": "IFNγ-induced pSTAT1 in CD14+ monocytes", "test": "Assay 7: Inhibition of IFNγ-induced pSTAT1 in CD14+ monocytes", "type": "cell-based", "settings": "Homo sapiens, Monocyte, flow cytometry, read-out: pIC50, inhibition of IFNγ-induced pSTAT1 (converted)", "method": "The potency of the test compound for inhibition of interferon gamma (IFNγ) stimulated STAT1 phosphorylation was measured in CD14-positive (CD14+) monocytes derived from human whole blood (Stanford Blood Center) using flow cytometry. Because IFNγ signals through JAK, this assay provides a measure of JAK cellular potency.\nMonocytes were identified using a fluorescein isothiocyanate (FITC) conjugated anti-CD14 antibody (Clone RM052, Beckman Coulter), and an Alexa Fluor 647 conjugated anti-pSTAT1 antibody (pY701, Clone 4a, BD Biosciences) was used to detect STAT1 phosphorylation.\nHuman peripheral blood mononuclear cells (PBMC) were isolated from human whole blood of healthy donors using a ficoll gradient. […] Cells were washed twice with FACS buffer, and then resuspended in 1:10 anti-pSTAT1 Alexa Fluor 647:FACS buffer (100 μL) for 30 min at RT in the dark, washed twice in FACS buffer, and analyzed using a LSRII flow cytometer (BD Biosciences).\nTo determine the inhibitory potency of the test compound, the median fluorescent intensity (MFI) of pSTAT1 was measured in CD14+ monocytes. IC50 values were determined from analysis of the inhibition curves of MFI vs compound concentration. Data are expressed as pIC50 (negative decadic logarithm IC50) values."}, "[2]": {"system": "IL-13 induced STAT6 phosphorylation in BEAS-2B human lung epithelial cells", "test": "Assay 2: Cellular JAK potency assay: inhibition of IL-13 (AlphaScreen)", "type": "cell-based", "settings": "BEAS-2B cells, read-out: pIC50, inhibition of IL-13 induced STAT6 phosphorylation (converted)", "method": "The AlphaScreen JAM cellular potency assay was carried out by measuring interleukin-13 (IL-13, R&D Systems) induced STAT6 phosphorylation in BEAS-2B human lung epithelial cells (ATCC). The anti-STAT6 antibody (Cell Signaling Technologies) was conjugated to AlphaScreen acceptor beads (Perkin Elmer), while the anti-pSTAT6 (pTyr641) antibody (Cell Signaling Technologies) was biotinylated using EZ-Link Sulfo-NHS-Biotin (Thermo Scientific).\nBEAS-2B cells were grown at 37° C. in a 5% CO2 humidified incubator in 50% DMEM/50% F-12 medium (Life Technologies) supplemented with 10% FBS (Hyclone), 100 U/mL penicillin, 100 μg/mL streptomycin (Life Technologies), and 2 mM\nGlutaMAX (Life Technologies). On day 1 of the assay, cells were seeded at a 7,500 cells/well density in white poly-D-lysine-coated 384-well plates (Corning) with 25 μL medium, and were allowed to adhere overnight in the incubator. […] After a minimum of 2 h incubation, the assay plates were read on the EnVision plate reader. AlphaScreen luminescence signals were recorded and utilized to calculate the percent inhibition values based on DMSO and background controls.\nFor dose-response analysis, percent inhibition data were plotted vs. compound concentrations, and IC50 values were determined from a 4-parameter robust fit model with the Prism software. Results may also be expressed as the negative logarithm of the IC50 value, pIC50."}}}
{"smiles": "CCc1cc(O)c(F)cc1-c1ccc2c(-c3nc4c([nH]3)CCN(C3CCN(C)CC3)C4)n[nH]c2c1", "note": "[Compound 1, 5-ethyl-2-fluoro-4-(3-(5-(1-methylpiperidin-4-yl)-4,5,6,7-tetrahydro-1H-imidazo[4,5-c]pyridin-2-yl)-1H-indazol-6-yl)phenol]", "values": [{"measurement": "IC50", "setting": "[1]", "result": "~31.6", "unit": "nM"}, {"measurement": "IC50", "setting": "[2]", "result": 6.31, "unit": "nM"}]}
